Experiments:
Type in all cases: cell-based, human
[1] = tested on: Rho/MKL1 pathway; test: SRE.L-firefly luciferase reporter (dual luciferase assay), Gα12QL-transfected PC-3 cells; settings: Homo sapiens, 19 h; for inhibition at 10 µM / inhibition at 100 µM: DMSO alone = 0%; for inhibition at 10 µM: read-out: % inh SRE.L (10 μM); for inhibition at 100 µM: read-out: % inh SRE.L (100 μM)
Description: (§1) Dual Luciferase Assay: Seed PC-3 prostate cancer cells (40,000 cells/well) were grown in 96-well plates in 10% FBS containing DMEM medium. Cells were transiently transfected with the Gα12QL activator of the Rho/MKL1 pathway, along with the SRE.L-firefly luciferase reporter construct for 6 hours. Additionally, cells were co-transfected with the TK-Renilla luciferase reporter as an indicator of non-specific compound effects. Various concentrations of selected compounds were added to the 96-well plates. Plates were incubated for 19 hours at 37° C. and 5% CO2 in 0.5% FBS containing DMEM medium. Cells were lysed with 1X Passive Lysis Buffer (Promega). Plates were incubated for 30 minutes at room temperature. Luminescence counts were read with a Victor2 (Perkin-Elmer) plate reader.

[2] = tested on: TK-Renilla luciferase reporter; test: TK-Renilla (pRL-TK) luciferase reporter, indicator of non-specific compound effects; settings: Homo sapiens, PC-3, 19 h, PC-3 cells; for inhibition at 10 µM: read-out: % inh PRL-TK (10 μM); for inhibition at 100 µM: read-out: % inh PRL-TK (100 μM)
Description: as §1

[3] = tested on: PC-3 prostate cancer cells; test: WST1 cell viability assay; settings: Homo sapiens, PC-3 cells, just before lysis; for inhibition at 10 µM: PC-3, 10 μM, read-out: % inh WST-1 (10 μM); for inhibition at 100 µM: PC-3, 100 μM, read-out: % inh WST-1 (100 μM)
Description: WST1 Cell Viability Assay: One hour prior to cell lysis for the dual luciferase assay, 10 μl per well of WST1 reagent (Roche) was added to the 96-well plates. Plates were incubated for 1 hour at 37° C. and 5% CO2. Cell viability was measured by WST1 absorbance at 450 nm with a Victor2 (Perkin-Elmer) plate reader.

For `O=C(CONC(=O)c1cc(C(F)(F)F)cc(C(F)(F)F)c1)Nc1cccc(Cl)c1` [Compound 10, N-(2-(3-chlorophenylamino)-2-oxoethoxy)-3,5-bis(trifluoromethyl)benzamide], the IC50 [1] was 5.9 µM, the inhibition at 10 µM [1] was 65% and the inhibition at 100 µM [1] was 100%. For the same compound, the inhibition at 10 µM [2] was 51%, the inhibition at 100 µM [2] was 89% and the inhibition at 10 µM [3] was 49%. The inhibition at 100 µM [3] was 97%.
For `O=C(NCCCOc1ccc(Cl)cc1)c1cc(C(F)(F)F)cc(C(F)(F)F)c1` [Compound 19, N-(3-(4-chlorophenoxy)propyl)-3,5-bis(trifluoromethyl)benzamide], the IC50 [1] was 8.9 µM, the inhibition at 10 µM [1] was 55% and the inhibition at 100 µM [1] was 86%. The inhibition at 10 µM [2] was 28%, the inhibition at 100 µM [2] was 65% and the inhibition at 10 µM [3] was 0%. The inhibition at 100 µM [3] was 38%.
`FC(F)(F)c1cc(CNCCCNc2ccc(Cl)cc2)cc(C(F)(F)F)c1` [Compound 28, N^1-(3,5-bis(trifluoromethyl)benzyl)-N^3-(4-chlorophenyl)propane-1,3-diamine] showed an IC50 [1] of 9.1 µM, an inhibition at 10 µM [1] of 65% and an inhibition at 100 µM [1] of 100%. It also gave an inhibition at 10 µM [2] of 6%, an inhibition at 100 µM [2] of 90% and an inhibition at 10 µM [3] of 0%. It also gave an inhibition at 100 µM [3] of 89%.
Compound `O=C(Nc1ccccc1C(=O)Nc1ccc(Cl)cc1)c1cc(C(F)(F)F)cc(C(F)(F)F)c1` [Compound 16, N-(2-(4-chlorophenylcarbamoyl)phenyl)-3,5-bis(trifluoromethyl)benzamide] has an IC50 [1] of 18 µM, an inhibition at 10 µM [1] of 34% and an inhibition at 10 µM [2] of 0%. The inhibition at 10 µM [3] was 0%.
`O=C(Nc1ccc(Cl)cc1)C1CCCN1C(=O)c1cc(C(F)(F)F)cc(C(F)(F)F)c1` (stereo not shown) [Compound 7, 1-(3,5-bis(trifluoromethyl)benzoyl)-N-(4-chlorophenyl)pyrrolidine-2-carboxamide] gave an IC50 [1] of 69 µM, an inhibition at 10 µM [1] of 23% and an inhibition at 100 µM [1] of 83%. It also gave an inhibition at 10 µM [2] of 12%, an inhibition at 100 µM [2] of 27% and an inhibition at 10 µM [3] of 0%. For the same compound, the inhibition at 100 µM [3] was 22%.
`O=C(Nc1ccc(Cl)cc1)C1CCN(C(=O)c2cc(C(F)(F)F)cc(C(F)(F)F)c2)C1` (stereo not shown) [Compound 27, 1-(3,5-bis(trifluoromethyl)benzoyl)-N-(4-chlorophenyl)pyrrolidine-3-carboxamide] showed an IC50 [1] of 15.6 µM, an inhibition at 10 µM [1] of 30% and an inhibition at 100 µM [1] of 100%. It also gave an inhibition at 10 µM [2] of 14%, an inhibition at 100 µM [2] of 92% and an inhibition at 10 µM [3] of 0%. It also gave an inhibition at 100 µM [3] of 86%.
In the case of `O=C(Nc1ccc(Cl)cc1)C1CCN(C(=O)c2cc(C(F)(F)F)cc(C(F)(F)F)c2)CC1` [Compound 5, 1-(3,5-bis(trifluoromethyl)benzoyl)-N-(4-chlorophenyl)piperidine-4-carboxamide], the IC50 [1] is reported as 16 µM, the inhibition at 10 µM [1] is reported as 17% and the inhibition at 100 µM [1] is reported as 87%. The inhibition at 10 µM [2] was 0%, the inhibition at 100 µM [2] was 17% and the inhibition at 10 µM [3] was 0%. The inhibition at 100 µM [3] was 39%.
With `O=C(CC1CCCCN1C(=O)c1cc(C(F)(F)F)cc(C(F)(F)F)c1)Nc1ccc(Cl)cc1` (stereo not shown) [Compound 26, 2-(1-(3,5-bis(trifluoromethyl)benzoyl)piperidin-2-yl)-N-(4-chlorophenyl)acetamide] the IC50 [1] was 9.9 µM, the inhibition at 10 µM [1] was 41% and the inhibition at 100 µM [1] was 85%. The inhibition at 10 µM [2] was 0%, the inhibition at 100 µM [2] was 76% and the inhibition at 10 µM [3] was 0%. It also gave an inhibition at 100 µM [3] of 27%.
In the case of `O=C(CCc1cnnn1-c1cc(C(F)(F)F)cc(C(F)(F)F)c1)Nc1ccc(Cl)cc1` [Compound 59], the IC50 [1] is reported as over 100 µM, the inhibition at 10 µM [1] is reported as -3% and the inhibition at 100 µM [1] is reported as 4.7%. The inhibition at 10 µM [2] was -31.8%, the inhibition at 100 µM [2] was -13.3% and the inhibition at 10 µM [3] was -9.5%. For the same compound, the inhibition at 100 µM [3] was -11.8%.
`O=C(Nc1ccc(Cl)cc1)c1cccc(NC(=O)c2cc(C(F)(F)F)cc(C(F)(F)F)c2)c1` [Compound 14, N-(3-(4-chlorophenylcarbamoyl)phenyl)-3,5-bis(trifluoromethyl)benzamide] showed an IC50 [1] of 1.7 µM, an inhibition at 10 µM [1] of 79% and an inhibition at 10 µM [2] of 0%. The inhibition at 10 µM [3] was 38%.
